Values quoted from earlier work as cited in WO2005058299A1, “Phenethanolamine derivatives for treatment of respiratory diseases” (Glaxo Group Ltd, priority 2003, dated 2005).

System: PDE4
Conditions: IC50 for PDE4 form which binds rolipram with high affinity divided by IC50 for form which binds rolipram with low affinity

IC50 ratio	Compound
≥ 0.1	c/s-[4-cyano-4-(3-cyclopropylmethoxy-4- difluoromethoxyphenyl)cyclohexan-1-ol]
≥ 0.1	COC(=O)C1CC(C#N)(c2ccc(OC(F)F)c(OCC3CC3)c2)CCC1=O (stereo not drawn) [2-carbomethoxy-4-cyano-4-(3-cyclopropylmethoxy-4-difluoromethoxyphenyl)cyclohexan-1-one]

Compound	IC50 ratio
COc1ccc([C@]2(C#N)CC[C@@H](C(=O)O)CC2)cc1OC1CCCC1 [cis 4-cyano-4-(3-cyclopentyloxy-4-methoxyphenyl)cyclohexan-1-carboxylic acid]	≥ 0.1
